Source: US9073941B2, “Compounds and methods for treating tuberculosis infection” (Academia Sinica, priority 2010, dated 2015)
≈ marks a conversion by molar mass, not a printed value. Read-outs that look alike come from different tables or passages of the source.

Key:
[1] = biological target: lipoamide dehydrogenase (Lpd) (Mycobacterium tuberculosis (strain ATCC 25618 / H37Rv), UniProt P9WHH9); assay: Lipoamide Dehydrogenase (Lpd) Inhibition Assay; format: biochemical
Mtb PDH (Lpd+DlaT+AceE) = Mtb PDH (Lpd+DlaT+AceE) (Mycobacterium tuberculosis (strain ATCC 25618 / H37Rv), UniProt P9WHH9); assay: PDH Inhibition Activity; format: biochemical
[2] = system: Mycobacterium tuberculosis strains H37Rv; assay: In Vitro Antitubercular H37Rv MIC Assay (resazurin); format: cell-based; settings: 168 h; growth of Mycobacterium tuberculosis H37Rv, 7H9 medium, 7 days, tested 8-0.25 μg/mL
[3] = concentration required for 50% inhibition of LPD activity, DTNB detection, OD405 nm
[4] = concentration required for 50% inhibition of PDH activity, fluorescence ex 360 nm / em 460 nm, read-out: PDH IC50

SMILES	IC50 [1, 3]	IC50 (Mtb PDH (Lpd+DlaT+AceE); [4])	MIC [2]	IC50 [1]	IC50 (Mtb PDH (Lpd+DlaT+AceE))
O=C1C=C(NCc2ccccc2)c2ccccc2C1=O [Compound 901]	100 nM	4280 nM	8 µg/mL (≈ 30.4 µM)	–	–
Cn1nc(-c2ccc(Cl)cc2)nc2c(=O)n(C)c(=O)nc1-2 [Compound 603]	–	–	> 8 µg/mL	100 ± 10 nM	< 40 nM
C=CCn1c(NS(=O)(=O)c2ccccc2)c(C#N)c2nc3ccccc3nc21 [Compound 1002]	980 ± 150 nM	3320 nM	> 8 µg/mL	–	–
